This experiment has as its system CD2F1 mice, ip Colon 26 adenocarcinoma, median survival T/C. The experiment can be described thus: NCI In Vivo Anticancer Drug Screen. Data for tumor model Colon 26 Adenocarcinoma (intraperitoneal) in CD2F1 (CDF1) mice. The note with it: endpoint: median survival time, higher = longer survival. Here is the method: The antitumor activity of compounds was measured in mice bearing transplantable tumors. Survival or tumor size were measured and the results are expressed as the measurement made in the treated group (T) divided by the measurement made in the vehicle treated control group (C). The tumor model used in this assay is Colon 26 Adenocarcinoma (intraperitoneal) in CD2F1 (CDF1) mice

Setting [1] is: dose: 25.0 mg/kg/injection, schedule: Q04DX003 (ip), vehicle: saline.
[2] abbreviates: dose: 50.0 mg/kg/injection, schedule: Q04DX003 (ip), vehicle: saline.

Values joined by “and” are separate entries in the source; they are usually repeats but may differ in a detail not shown here. Equal values may be shown once. Toxic doses and inconclusive results are not listed.

`Oc1cc2c3c(c1)c1cc4c(cc1c[n+]3CC2)OCO4`: the T/C reads like this: (dose: 6.25 mg/kg/injection, schedule: Q04DX003 (ip), vehicle: distilled water + Tween-80) 118 % of control; (dose: 100.0 mg/kg/injection, schedule: Q04DX003 (ip), vehicle: distilled water + Tween-80) 118 % of control.
Consider `CCc1ncnc2cc(OCC3CO3)c(OC)cc12` (centres undefined), for which the T/C is, setting by setting: (dose: 25.0 mg/kg/injection, schedule: Q03DX002 (iv), vehicle: saline) 90 % of control; (dose: 40.0 mg/kg/injection, schedule: Q03DX002 (ip), vehicle: saline) 97 % of control; (dose: 40.0 mg/kg/injection, schedule: Q03DX002 (sc), vehicle: saline) 86 % of control; (dose: 60.0 mg/kg/injection, schedule: Q03DX002 (ip), vehicle: saline) 114 % of control; (dose: 60.0 mg/kg/injection, schedule: Q03DX002 (iv), vehicle: saline) 95 % of control; (dose: 60.0 mg/kg/injection, schedule: Q03DX002 (sc), vehicle: saline) 86 % of control.
As to `Cc1cn(C2CC(O)C(CO)O2)c(=O)[nH]c1=O` (centres undefined), the T/C was 98 % of control (dose: 12.5 mg/kg/injection, schedule: Q04DX003 (ip), vehicle: saline); 98 % of control under setting [1]; 98 % of control under setting [2]; 101 % of control (dose: 64.0 mg/kg/injection, schedule: Q04DX002 (ip), vehicle: suspension in saline); 96 % of control and 100 % of control (dose: 100.0 mg/kg/injection, schedule: Q04DX003 (ip), vehicle: saline); 88 % of control (dose: 128.0 mg/kg/injection, schedule: Q04DX002 (ip), vehicle: saline). The T/C is 100 % of control (dose: 128.0 mg/kg/injection, schedule: Q04DX002 (ip), vehicle: suspension in saline); 99 % of control and 100 % of control (dose: 200.0 mg/kg/injection, schedule: Q04DX003 (ip), vehicle: saline); 94 % of control (dose: 256.0 mg/kg/injection, schedule: Q04DX002 (ip), vehicle: suspension in saline); 116 % of control and 98 % of control (dose: 400.0 mg/kg/injection, schedule: Q04DX003 (ip), vehicle: saline); 94 % of control (dose: 512.0 mg/kg/injection, schedule: Q04DX002 (ip), vehicle: suspension in saline); 92 % of control (dose: 1024.0 mg/kg/injection, schedule: Q04DX002 (ip), vehicle: saline). Besides, the T/C (dose: 1024.0 mg/kg/injection, schedule: Q04DX002 (ip), vehicle: suspension in saline) is 95 % of control.
Regarding `N=[N+]=CC(=O)OCC(N)C(=O)O` (centres undefined), the T/C (dose: 3.12 mg/kg/injection, schedule: Q04DX003 (ip), vehicle: water) was 113 % of control; the T/C (dose: 6.25 mg/kg/injection, schedule: Q04DX003 (ip), vehicle: water) was 113 % of control; the T/C (dose: 12.5 mg/kg/injection, schedule: Q04DX003 (ip), vehicle: water) was 105 % of control; the T/C (dose: 25.0 mg/kg/injection, schedule: Q04DX003 (ip), vehicle: water) is 111 % of control; the T/C (dose: 50.0 mg/kg/injection, schedule: Q04DX003 (ip), vehicle: water) is 95 % of control.
With `C[C@@]1(CO)[C@@H](O)CC[C@@]2(C)[C@H]1CC[C@H]1C[C@@H]3CC12CC[C@]3(O)CO`, the T/C is 103 % of control (dose: 12.5 mg/kg/injection, schedule: Q04DX002 (ip), vehicle: distilled water + Tween-80); 109 % of control (dose: 25.0 mg/kg/injection, schedule: Q04DX002 (ip), vehicle: distilled water + Tween-80); 95 % of control (dose: 50.0 mg/kg/injection, schedule: Q04DX002 (ip), vehicle: distilled water + Tween-80); 109 % of control (dose: 100.0 mg/kg/injection, schedule: Q04DX002 (ip), vehicle: distilled water + Tween-80); 91 % of control (dose: 200.0 mg/kg/injection, schedule: Q04DX002 (ip), vehicle: distilled water + Tween-80); 116 % of control (dose: 400.0 mg/kg/injection, schedule: Q04DX002 (ip), vehicle: distilled water + Tween-80).
As for `NCCc1ccc(O)c(O)c1`, the T/C under setting [1] was 94 % of control and the T/C under setting [2] is 109 % of control.
`COc1cccc2c1C(=O)c1c(O)c3c(c(O)c1C2=O)C[C@@](O)(C(C)=O)C[C@@H]3OC1CC(O)C(O)C(C)O1` (some centres undefined): where the note is “dose: 31.0 mg/kg/injection, schedule: Q07DX002 (iv), vehicle: saline”, the T/C was 108 % of control.
On to `COc1cc(C)c2c(c1C=O)Oc1c(c(C)c(O)c3c1C(O)OC3=O)OC2=O` (centres undefined), for which the T/C was 103 % of control (dose: 3.12 mg/kg/injection, schedule: Q04DX003 (ip), vehicle: saline with Tween-80); 103 % of control (dose: 6.25 mg/kg/injection, schedule: Q04DX003 (ip), vehicle: saline with Tween-80); 104 % of control (dose: 12.5 mg/kg/injection, schedule: Q04DX003 (ip), vehicle: saline with Tween-80); 101 % of control (dose: 25.0 mg/kg/injection, schedule: Q04DX003 (ip), vehicle: saline with Tween-80); 112 % of control (dose: 50.0 mg/kg/injection, schedule: Q04DX003 (ip), vehicle: saline with Tween-80).
As for `CC1CCC(NC(=O)N(CCCl)N=O)CC1` (centres undefined), the T/C was 250 % of control (dose: 5.0 mg/kg/injection, schedule: Q04DX003 (ip), vehicle: Klucel (hydroxypropylcellulose) (HPC)); 106 % of control (dose: 6.7 mg/kg/injection, schedule: Q04DX002 (ip), vehicle: saline with Tween-80); 108 % of control (dose: 10.0 mg/kg/injection, schedule: Q04DX002 (ip), vehicle: saline with Tween-80); 305 % of control (dose: 10.0 mg/kg/injection, schedule: Q04DX003 (ip), vehicle: Klucel (hydroxypropylcellulose) (HPC)); 189 % of control and 219 % of control (dose: 12.0 mg/kg/injection, schedule: Q07DX003 (ip), vehicle: saline with Tween-80); 123 % of control (dose: 15.0 mg/kg/injection, schedule: Q04DX002 (ip), vehicle: saline with Tween-80). For the same compound, the T/C is 262 % of control and 288 % of control (dose: 17.0 mg/kg/injection, schedule: Q07DX003 (ip), vehicle: saline with Tween-80); 217 % of control (dose: 20.0 mg/kg/injection, schedule: Q01DX001 (ip), vehicle: other); 437 % of control (dose: 20.0 mg/kg/injection, schedule: Q04DX003 (ip), vehicle: Klucel (hydroxypropylcellulose) (HPC)); 288 % of control and 354 % of control (dose: 24.0 mg/kg/injection, schedule: Q07DX003 (ip), vehicle: saline with Tween-80); 217 % of control (dose: 30.0 mg/kg/injection, schedule: Q01DX001 (ip), vehicle: other); 352 % of control (dose: 30.0 mg/kg/injection, schedule: Q01DX005 (ip), vehicle: saline with Tween-80). In addition, the T/C was 329 % of control (dose: 40.0 mg/kg/injection, schedule: Q01DX005 (ip), vehicle: saline with Tween-80) and 172 % of control (dose: 55.0 mg/kg/injection, schedule: Q01DX005 (ip), vehicle: saline with Tween-80).
